What was measured:
[1] = test system: TNF; experiment: TNF IC50 (column of Table 1; method not shown); type: cell-based
[2] = target: T1, SIRT1 (Homo sapiens, UniProt Q96EB6); experiment: Mass spectrometry based assay to identify modulators of SIRT1 activity (deacetylation of p53-based acetylated peptide substrate); type: biochemical; details: SIRT1 activation; for Emax: 25 min, read-out: % FOLD ACT. (percent maximum fold activation)
T1 sequence (Q96EB6 1-747): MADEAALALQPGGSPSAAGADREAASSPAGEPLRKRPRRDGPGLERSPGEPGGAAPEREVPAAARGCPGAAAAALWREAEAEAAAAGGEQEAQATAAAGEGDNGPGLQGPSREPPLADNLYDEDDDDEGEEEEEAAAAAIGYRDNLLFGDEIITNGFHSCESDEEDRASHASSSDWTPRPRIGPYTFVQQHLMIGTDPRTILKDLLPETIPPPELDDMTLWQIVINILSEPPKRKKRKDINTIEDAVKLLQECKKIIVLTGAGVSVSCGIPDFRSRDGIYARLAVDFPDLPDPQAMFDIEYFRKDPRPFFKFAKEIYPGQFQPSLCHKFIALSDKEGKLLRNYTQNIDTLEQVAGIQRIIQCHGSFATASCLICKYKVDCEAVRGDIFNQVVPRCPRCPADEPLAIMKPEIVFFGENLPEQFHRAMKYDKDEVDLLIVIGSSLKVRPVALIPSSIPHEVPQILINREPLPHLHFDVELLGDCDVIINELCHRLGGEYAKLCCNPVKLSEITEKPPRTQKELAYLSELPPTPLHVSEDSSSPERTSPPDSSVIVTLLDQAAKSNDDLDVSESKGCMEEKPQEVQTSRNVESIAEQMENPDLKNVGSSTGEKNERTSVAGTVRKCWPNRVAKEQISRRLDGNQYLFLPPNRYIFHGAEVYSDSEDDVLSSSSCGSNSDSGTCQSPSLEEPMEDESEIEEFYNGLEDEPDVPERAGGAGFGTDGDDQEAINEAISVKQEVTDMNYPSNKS
How it was run: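 Deacetylation of a modified p53 acetyl-lysine peptide ([…], 5TMR-labelled, Nle for Met) by 10 nM N-His SIRT1 with 120 μM βNAD+, pH 8, 25 min, 25 °C. Substrate and product masses measured by MS after formic acid quench; nicotinamide defines maximal inhibition.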

Q: How did the IC50 [1] turn out when `Cc1cncc(NC(=O)N2CCCc3ccc(-c4cccc(F)c4)nc32)c1` [Compound 590] was run?
A: < 20 µM

Q: And the Emax [2]?
A: > 200%

Q: And the EC1.5 [2]?
A: A (EC1.5<1.0 μM)

Q: How did the IC50 [1] turn out when `Cc1cncc(NC(=O)N2CC(C)(C)Oc3ccc(-c4cccc(F)c4)nc32)c1` [Compound 591] was run?
A: < 20 µM

Q: What about the Emax [2] of the same compound?
A: > 200%

Q: What about the EC1.5 [2] of the same compound?
A: A (EC1.5<1.0 μM)

Q: Which IC50 [1] does the source give for `Cc1cc(NC(=O)N2CC(C)(C)Oc3ccc(-c4cccc(F)c4)nc32)cc(C)n1` [Compound 592] here?
A: ≥ 20 µM

Q: What about the Emax [2] of the same compound?
A: > 200%

Q: What about the EC1.5 [2] of the same compound?
A: A (EC1.5<1.0 μM)

Q: How did the IC50 [1] turn out when `Cc1cncc(NC(=O)N2CC(C)(C)Oc3ccc(-c4cccc(N(C)C)c4)nc32)c1` [Compound 593] was run?
A: ≥ 20 µM

Q: What about the Emax [2] of the same compound?
A: > 200%

Q: And the EC1.5 [2]?
A: A (EC1.5<1.0 μM)

Q: `O=C(Nc1cncc(F)c1)N1CCCc2ccc(-c3cccc(F)c3)nc21` [Compound 594] was tested. Which IC50 [1] did it give?
A: ≥ 20 µM

Q: And the EC1.5 [2]?
A: A (EC1.5<1.0 μM)

Q: How did the IC50 [1] turn out when `Cc1cc(NC(=O)N2CCCc3ccc(-c4cccc(F)c4)nc32)cc(C)n1` [Compound 595] was run?
A: < 20 µM

Q: What about the Emax [2] of the same compound?
A: > 200%

Q: And the EC1.5 [2]?
A: A (EC1.5<1.0 μM)

Q: `O=C(Nc1ccnc(N2CCC2)c1)N1CCCc2ccc(-c3cccc(F)c3)nc21` [Compound 596] was tested. Which IC50 [1] did it give?
A: < 20 µM

Q: And the Emax [2]?
A: > 200%

Q: And the EC1.5 [2]?
A: A (EC1.5<1.0 μM)

Q: Which results are given for `Cc1cc(NC(=O)N2CC(C)(C)Oc3ccc(-c4cccc(N(C)C)c4)nc32)cc(C)n1` [Compound 597]?
A: IC50 [1]: < 20 µM; Emax [2]: > 200%; EC1.5 [2]: A (EC1.5<1.0 μM)

Q: With `Cc1cncc(NC(=O)N2CCCOc3ccc(-c4cccc(Cl)c4)nc32)c1` [Compound 598] as the compound, how does the IC50 [1] read?
A: < 20 µM

Q: And the Emax [2]?
A: > 200%

Q: And the EC1.5 [2]?
A: A (EC1.5<1.0 μM)

Q: `Cc1cncc(NC(=O)N2CCCc3ccc(-c4cccc(Cl)c4)nc32)c1` [Compound 599] was tested. Which IC50 [1] did it give?
A: ≥ 20 µM

Q: And the Emax [2]?
A: > 200%

Q: What about the EC1.5 [2] of the same compound?
A: A (EC1.5<1.0 μM)

Q: How did the IC50 [1] turn out when `Cc1cncc(NC(=O)N2CC(C)(C)Oc3ccc(-c4cccc(Cl)c4)nc32)c1` [Compound 600] was run?
A: < 20 µM

Q: And the Emax [2]?
A: > 200%

Q: And the EC1.5 [2]?
A: A (EC1.5<1.0 μM)

Q: Which results are given for `Cc1cc(NC(=O)N2CC(C)(C)Oc3ccc(-c4cccc(Cl)c4)nc32)cc(C)n1` [Compound 602]?
A: IC50 [1]: ≥ 20 µM; Emax [2]: > 200%; EC1.5 [2]: A (EC1.5<1.0 μM)

Q: What does the source list for `Cc1cncc(NC(=O)N2CC(C)(C)Oc3ccc(-c4cccc(N5CCCC5)c4)nc32)c1` [Compound 603]?
A: IC50 [1]: ≥ 20 µM; Emax [2]: > 200%; EC1.5 [2]: A (EC1.5<1.0 μM)

Q: How did the IC50 [1] turn out when `CC1(C)CN(C(=O)Nc2cncc(F)c2)c2nc(-c3cccc(N4CCCC4)c3)ccc2O1` [Compound 604] was run?
A: ≥ 20 µM

Q: What about the Emax [2] of the same compound?
A: > 200%

Q: What about the EC1.5 [2] of the same compound?
A: A (EC1.5<1.0 μM)

Q: For `Cc1cc(NC(=O)N2CC(C)(C)Oc3ccc(-c4cccc(N5CCCC5)c4)nc32)cc(C)n1` [Compound 605], which IC50 [1] is on record?
A: ≥ 20 µM

Q: And the Emax [2]?
A: > 200%

Q: And the EC1.5 [2]?
A: A (EC1.5<1.0 μM)

Q: How did the IC50 [1] turn out when `Cc1csc(NC(=O)N2CC(C)(C)Oc3ccc(-c4cccc(N5CCCC5)c4)nc32)n1` [Compound 606] was run?
A: ≥ 20 µM

Q: What about the Emax [2] of the same compound?
A: ≤ 200%

Q: And the EC1.5 [2]?
A: A (EC1.5<1.0 μM)

Q: With `Cc1csc(NC(=O)N2CCCOc3ccc(-c4cccc(Cl)c4)nc32)n1` [Compound 607] as the compound, how does the IC50 [1] read?
A: ≥ 20 µM

Q: And the Emax [2]?
A: > 200%

Q: What about the EC1.5 [2] of the same compound?
A: A (EC1.5<1.0 μM)

Q: `O=C(Nc1ccnc(N2CCC2)c1)N1CCCOc2ccc(-c3cccc(Cl)c3)nc21` [Compound 608] was tested. Which IC50 [1] did it give?
A: < 20 µM

Q: And the Emax [2]?
A: > 200%

Q: And the EC1.5 [2]?
A: A (EC1.5<1.0 μM)

Q: `O=C(Nc1ccnc(N2CCCC2)c1)N1CCCOc2ccc(-c3cccc(Cl)c3)nc21` [Compound 609] was tested. Which IC50 [1] did it give?
A: < 20 µM

Q: What about the Emax [2] of the same compound?
A: > 200%

Q: What about the EC1.5 [2] of the same compound?
A: A (EC1.5<1.0 μM)

Q: What does the source list for `O=C(Nc1ccnc(N2CCC2)c1)N1CCCOc2ccc(-c3cccc(N4CCCC4)c3)nc21` [Compound 611]?
A: IC50 [1]: < 20 µM; Emax [2]: > 200%; EC1.5 [2]: A (EC1.5<1.0 μM)

Q: With `O=C(Nc1ccnc(N2CCCC2)c1)N1CCCOc2ccc(-c3cccc(N4CCCC4)c3)nc21` [Compound 612] as the compound, how does the IC50 [1] read?
A: < 20 µM

Q: What about the Emax [2] of the same compound?
A: > 200%

Q: What about the EC1.5 [2] of the same compound?
A: A (EC1.5<1.0 μM)
